Laboratory results reported in ChEMBL document CHEMBL5260810, “Inhibition of bromodomain-containing protein 9 for the prevention of epigenetically-defined drug resistance” (Bioorg Med Chem Lett, 2017).

How the values were obtained:
[1] = Cytotoxicity against human Mel 928 cells measured after 8 days; type: functional, cell-based; details: Mel 928, 192 h
[2] = Cytotoxicity against mouse TRAMP-C1 cells measured after 8 days; type: functional, cell-based; details: TRAMP-C1, 192 h
[3] = Cytotoxicity against human KCI-MOH1 cells measured after 8 days; type: functional, cell-based; details: KCI-MOH1, 192 h
[4] = Cytotoxicity against human SUIT-2 cells measured after 8 days; type: functional, cell-based; details: SUIT-2, 192 h
[5] = Cytotoxicity against human OE21 cells measured after 8 days; type: functional, cell-based; details: OE21, 192 h
[6] = tested on: MPC-11; experiment: Cytotoxicity against mouse MPC-11 cells measured after 8 days; type: functional, cell-based; details: MPC-11, 192 h
[7] = Cytotoxicity against human KPR3070 cells measured after 8 days; type: functional, cell-based; details: KPR3070, 192 h
[8] = tested on: CFPAC-1; experiment: Cytotoxicity against human CFPAC-1 cells measured after 8 days; type: functional, cell-based; details: CFPAC-1, 192 h
[9] = tested on: SK-MEL-24; experiment: Cytotoxicity against human SK-MEL-24 cells measured after 8 days; type: functional, cell-based; details: SK-MEL-24, 192 h
[10] = Cytotoxicity against human HCC1482 cells measured after 8 days; type: functional, cell-based; details: HCC1482, 192 h
[11] = Cytotoxicity against human VP229 cells measured after 8 days; type: functional, cell-based; details: VP229, 192 h
[12] = Cytotoxicity against human NCI-H2804 cells measured after 8 days; type: functional, cell-based; details: NCI-H2804, 192 h
[13] = biological target: TGF-beta receptor type-1 (Homo sapiens) (UniProt P36897); experiment: Inhibition of TGFBR1 (unknown origin) at 1 uM relative to control
[14] = Cytotoxicity against human NCE-G 112 cells measured after 8 days; type: functional, cell-based; details: NCE-G 112, 192 h
[15] = Cytotoxicity against human COLO 853 cells measured after 8 days; type: functional, cell-based; details: COLO 853, 192 h
[16] = Cytotoxicity against human COLO 685 cells measured after 8 days; type: functional, cell-based; details: COLO 685, 192 h
[17] = tested on: EMT6; experiment: Cytotoxicity against mouse EMT6 Luciferase cells measured after 8 days; type: functional, cell-based; details: EMT6, 192 h
[18] = tested on: KMS-12-BM; experiment: Cytotoxicity against human KMS-12-BM cells measured after 8 days; type: functional, cell-based; details: 192 h
[19] = Cytotoxicity against mouse KLN205 cells measured after 8 days; type: functional, cell-based; details: KLN205, 192 h
[20] = tested on: CHP-212; experiment: Cytotoxicity against human CHP-212 cells measured after 8 days; type: functional, cell-based; details: CHP-212, 192 h
[21] = tested on: SK-OV-3; experiment: Cytotoxicity against human SK-OV-3 cells measured after 8 days; type: functional, cell-based; details: SK-OV-3, 192 h
[22] = Cytotoxicity against human HCC1576 cells measured after 8 days; type: functional, cell-based; details: HCC1576, 192 h
[23] = Cytotoxicity against human Li-7 cells measured after 8 days; type: functional, cell-based; details: Li-7, 192 h
[24] = tested on: C3A; experiment: Cytotoxicity against human C3A cells measured after 8 days; type: functional, cell-based; details: 192 h
[25] = Cytotoxicity against human HCC15 cells measured after 8 days; type: functional, cell-based; details: HCC15, 192 h
[26] = Cytotoxicity against human PK-45H cells measured after 8 days; type: functional, cell-based; details: 192 h
[27] = tested on: NB69; experiment: Cytotoxicity against human NB69 cells measured after 8 days; type: functional, cell-based; details: NB69, 192 h
[28] = tested on: NCI-H929; experiment: Cytotoxicity against human NCI-H929 cells measured after 8 days; type: functional, cell-based; details: NCI-H929, 192 h
[29] = tested on: KU812 cell line; experiment: Cytotoxicity against human KU812 cell line measured after 8 days; type: functional, cell-based; details: KU812, 192 h
[30] = Cytotoxicity against human SNU-601 cells measured after 8 days; type: functional, cell-based; details: SNU-601, 192 h
[31] = tested on: LS174T; experiment: Cytotoxicity against human LS174T cells measured after 8 days; type: functional, cell-based; details: 192 h
[32] = Cytotoxicity against human KR7414 cells measured after 8 days; type: functional, cell-based; details: KR7414, 192 h
[33] = tested on: MG-63; experiment: Cytotoxicity against human MG-63 cells measured after 8 days; type: functional, cell-based; details: MG-63, 192 h
[34] = tested on: MC-IXC; experiment: Cytotoxicity against human MC-IXC cells measured after 8 days; type: functional, cell-based; details: 192 h
[35] = tested on: SKG-IIIa; experiment: Cytotoxicity against human SKG-IIIa cells measured after 8 days; type: functional, cell-based; details: 192 h
[36] = Cytotoxicity against human COV504 cells measured after 8 days; type: functional, cell-based; details: COV504, 192 h
[37] = tested on: G-402; experiment: Cytotoxicity against human G-402 cells measured after 8 days; type: functional, cell-based; details: G-402, 192 h
[38] = Cytotoxicity against human DEOC-1 cells measured after 8 days; type: functional, cell-based; details: DEOC-1, 192 h
[39] = tested on: KYSE-510; experiment: Cytotoxicity against human KYSE-510 cells measured after 8 days; type: functional, cell-based; details: KYSE-510, 192 h
[40] = Cytotoxicity against human MS751 cells measured after 8 days; type: functional, cell-based; details: MS751, 192 h
[41] = tested on: HT-1080; experiment: Cytotoxicity against human HT-1080 cells measured after 8 days; type: functional, cell-based; details: HT-1080, 192 h
[42] = Cytotoxicity against human NCE-G 140 cells measured after 8 days; type: functional, cell-based; details: NCE-G 140, 192 h
[43] = Cytotoxicity against human Panc 02.03 cells measured after 8 days; type: functional, cell-based; details: Panc 02.03, 192 h
[44] = tested on: PSN1; experiment: Cytotoxicity against human PSN1 cells measured after 8 days; type: functional, cell-based; details: PSN1, 192 h
[45] = Cytotoxicity against human Hs 852.T cells measured after 8 days; type: functional, cell-based; details: 192 h
[46] = tested on: HPAF-II; experiment: Cytotoxicity against human HPAF-II cells measured after 8 days; type: functional, cell-based; details: 192 h
[47] = Cytotoxicity against human MOLP8 cells measured after 8 days; type: functional, cell-based; details: MOLP-8, 192 h
[48] = Cytotoxicity against human SM1 cells measured after 8 days; type: functional, cell-based; details: SM1, 192 h
[49] = tested on: NCI-H1930; experiment: Cytotoxicity against human NCI-H1930 cells measured after 8 days; type: functional, cell-based; details: NCI-H1930, 192 h
[50] = tested on: Panc1005; experiment: Cytotoxicity against human Panc1005 cells measured after 8 days; type: functional, cell-based; details: Panc1005, 192 h
[51] = tested on: HT55; experiment: Cytotoxicity against human HT55 cells measured after 8 days; type: functional, cell-based; details: HT55, 192 h
[52] = Cytotoxicity against human FA9JTOTERT cells measured after 8 days; type: functional, cell-based; details: 192 h
[53] = tested on: Rec1; experiment: Cytotoxicity against human REC1 cells measured after 8 days; type: functional, cell-based; details: Rec1, 192 h
[54] = tested on: SIMA; experiment: Cytotoxicity against human SIMA cells measured after 8 days; type: functional, cell-based; details: 192 h
[55] = tested on: KYSE-410; experiment: Cytotoxicity against human KYSE-410 cells measured after 8 days; type: functional, cell-based; details: KYSE-410, 192 h
[56] = tested on: CAL-148; experiment: Cytotoxicity against human CAL-148 cells measured after 8 days; type: functional, cell-based; details: CAL-148, 192 h
[57] = Cytotoxicity against human SNU-620 cells measured after 8 days; type: functional, cell-based; details: SNU620, 192 h
[58] = Cytotoxicity against human 624-mel cells measured after 8 days; type: functional, cell-based; details: Homo sapiens, 624, 192 h
[59] = Cytotoxicity against human RKOE6 cells measured after 8 days; type: functional, cell-based; details: RKOE6, 192 h
[60] = Cytotoxicity against human HEC-116 cells measured after 8 days; type: functional, cell-based; details: HEC-116, 192 h
[61] = tested on: SNU-449; experiment: Cytotoxicity against human SNU-449 cells measured after 8 days; type: functional, cell-based; details: SNU-449, 192 h

TGF-beta receptor type-1 (Homo sapiens), sequence (P36897 whole entry): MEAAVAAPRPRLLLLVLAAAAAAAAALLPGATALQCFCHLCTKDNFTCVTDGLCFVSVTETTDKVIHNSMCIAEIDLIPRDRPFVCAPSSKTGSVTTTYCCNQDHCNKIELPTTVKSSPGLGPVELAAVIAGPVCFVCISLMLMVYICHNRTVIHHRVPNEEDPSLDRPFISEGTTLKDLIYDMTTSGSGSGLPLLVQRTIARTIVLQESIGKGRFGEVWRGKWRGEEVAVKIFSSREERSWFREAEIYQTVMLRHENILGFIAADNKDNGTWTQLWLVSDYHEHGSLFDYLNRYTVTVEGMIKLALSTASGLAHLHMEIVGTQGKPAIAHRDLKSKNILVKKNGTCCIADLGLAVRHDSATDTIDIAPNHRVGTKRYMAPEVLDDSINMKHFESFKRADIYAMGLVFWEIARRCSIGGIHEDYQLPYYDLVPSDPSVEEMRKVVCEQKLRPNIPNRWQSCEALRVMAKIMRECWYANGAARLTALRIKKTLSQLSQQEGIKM

## C/C=C/Cn1cc(-c2ccc(C(C)(C)O)cc2OC)c2cc[nH]c2c1=O
[1]
  IC50: 20 µM
[2]
  IC50: 20 µM
[3]
  IC50: 20 µM
[4]
  IC50: 20 µM
[5]
  IC50: 20 µM
[6]
  IC50: 16.5 µM
[7]
  IC50: 20 µM
[8]
  IC50: 20 µM
[9]
  IC50: 20 µM
[10]
  IC50: 20 µM
[11]
  IC50: 20 µM
[12]
  IC50: 20 µM
[13]
  inhibition: 0%
[14]
  IC50: 20 µM
[15]
  IC50: 20 µM
[16]
  IC50: 20 µM
[17]
  IC50: 20 µM
[18]
  IC50: 20 µM
[19]
  IC50: 20 µM
[20]
  IC50: 20 µM
[21]
  IC50: 20 µM
[22]
  IC50: 20 µM
[23]
  IC50: 20 µM
[24]
  IC50: 20 µM
[25]
  IC50: 20 µM
[26]
  IC50: 20 µM
[27]
  IC50: 20 µM
[28]
  IC50: 20 µM
[29]
  IC50: 20 µM
[30]
  IC50: 20 µM
[31]
  IC50: 20 µM
[32]
  IC50: 20 µM
[33]
  IC50: 7.4 µM
[34]
  IC50: 20 µM
[35]
  IC50: 20 µM
[36]
  IC50: 20 µM
[37]
  IC50: 11.7 µM
[38]
  IC50: 20 µM
[39]
  IC50: 20 µM
[40]
  IC50: 20 µM
[41]
  IC50: 20 µM
[42]
  IC50: 20 µM
[43]
  IC50: 20 µM
[44]
  IC50: 20 µM
[45]
  IC50: 20 µM
[46]
  IC50: 20 µM
[47]
  IC50: 20 µM
[48]
  IC50: 11.2 µM
[49]
  IC50: 20 µM
[50]
  IC50: 20 µM
[51]
  IC50: 20 µM
[52]
  IC50: 20 µM
[53]
  IC50: 16.4 µM
[54]
  IC50: 20 µM
[55]
  IC50: 20 µM
[56]
  IC50: 20 µM
[57]
  IC50: 20 µM
[58]
  IC50: 20 µM
[59]
  IC50: 20 µM
[60]
  IC50: 20 µM
[61]
  IC50: 20 µM

## C/C=C/Cn1cc(-c2ccc(C(=O)N3CCOCC3)cc2)c2cc[nH]c2c1=O
[1]
  IC50: 20 µM
[2]
  IC50: 19.7 µM
[3]
  IC50: 20 µM
[4]
  IC50: 20 µM
[5]
  IC50: 20 µM
[6]
  IC50: 10.7 µM
[7]
  IC50: 20 µM
[8]
  IC50: 20 µM
[9]
  IC50: 20 µM
[10]
  IC50: 20 µM
[11]
  IC50: 20 µM
[12]
  IC50: 20 µM
[14]
  IC50: 20 µM
[15]
  IC50: 20 µM
[16]
  IC50: 20 µM
[17]
  IC50: 20 µM
[18]
  IC50: 13.7 µM
[19]
  IC50: 20 µM
[20]
  IC50: 18.6 µM
[21]
  IC50: 20 µM
[22]
  IC50: 20 µM
[23]
  IC50: 20 µM
[24]
  IC50: 20 µM
[25]
  IC50: 20 µM
[26]
  IC50: 20 µM
[27]
  IC50: 20 µM
[28]
  IC50: 6.04 µM
[29]
  IC50: 20 µM
[30]
  IC50: 20 µM
[31]
  IC50: 20 µM
[32]
  IC50: 20 µM
[33]
  IC50: 20 µM
[34]
  IC50: 20 µM
[35]
  IC50: 20 µM
[36]
  IC50: 20 µM
[37]
  IC50: 4.76 µM
[38]
  IC50: 20 µM
[39]
  IC50: 20 µM
[40]
  IC50: 20 µM
[41]
  IC50: 20 µM
[42]
  IC50: 20 µM
[43]
  IC50: 20 µM
[44]
  IC50: 20 µM
[45]
  IC50: 20 µM
[46]
  IC50: 20 µM
[47]
  IC50: 18.3 µM
[48]
  IC50: 17.9 µM
[49]
  IC50: 20 µM
[50]
  IC50: 20 µM
[51]
  IC50: 20 µM
[52]
  IC50: 20 µM
[53]
  IC50: 20 µM
[54]
  IC50: 20 µM
[55]
  IC50: 20 µM
[56]
  IC50: 20 µM
[57]
  IC50: 20 µM
[58]
  IC50: 20 µM
[59]
  IC50: 20 µM
[60]
  IC50: 20 µM
[61]
  IC50: 20 µM

## C/C=C/Cn1cc(-c2cc(OC)c(C(=O)N3CCOCC3)cc2OC)c2cc(C)[nH]c2c1=O
[13]
  inhibition: -1.5%
